Laboratory results: ChEMBL document CHEMBL3137667, “[Drug-induced liver injury; fourteenth updated edition of the bibliographic database of liver injuries and related drugs]” (Gastroenterol Clin Biol, 2004)

Assays:
[1] = Highest frequency of moderate liver toxicity observed during clinical trials, expressed as a percentage. [column '% BIOL' in source]; settings: human
[2] = human, serum, 4383 h
[3] = human
[4] = human; remark: listed apart in the source
[5] = human; remark: listed apart in the source
[6] = human, serum
[7] = human; remark: listed apart in the source
[8] = human; remark: listed apart in the source
[9] = human; remark: listed apart in the source
[10] = human; remark: listed apart in the source
[11] = human; remark: listed apart in the source
[12] = Highest frequency of acute liver toxicity observed during clinical trials, expressed as a percentage. [column '% AIGUE' in source]; settings: human
[13] = human; remark: listed apart in the source
[14] = human, serum; remark: listed apart in the source
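Wherever Hepatotoxicity (association with vascular disease) is given: count of indexed literature references reporting vascular liver injury in humans, e.g. peliosis hepatitis, hepatic veno-occlusive disease or Budd-Chiari syndrome.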
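Wherever Hepatotoxicity (benign tumour) is given: value is a count of indexed literature references citing a benign tumour confirmed by histopathology.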
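Wherever Hepatotoxicity (choleostasis) is given: human cholestatic liver injury, shown by histopathology or by peak ALT or AST elevation over alkaline phosphatase ratio below 2, value counts indexed literature reports.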
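Wherever Hepatotoxicity (chronic liver disease) is given: chronic liver injury confirmed by histopathology or persistently raised serum aminotransferase activity beyond 6 months, value given as the count of indexed literature references.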
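Wherever Hepatotoxicity (cirrhosis) is given: value is a count of indexed literature references reporting cirrhosis confirmed by histopathology.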
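Wherever Hepatotoxicity (cytolytic) is given: human cytolytic liver injury, shown by histopathology or by a ratio above 5 of peak ALT or AST elevation to alkaline phosphatase elevation, value counts indexed references.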
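Wherever Hepatotoxicity (granulomatous hepatitis) is given: value is a count of indexed literature references reporting granulomatous liver disease confirmed by histopathology.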
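Wherever Hepatotoxicity (malignant tumour) is given: malignant tumour confirmed by histopathology, value gives the count of indexed literature references reporting it.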
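Wherever Hepatotoxicity (severe hepatitis) is given: human clinical data: severe hepatitis, meaning potentially life-threatening liver failure or clinically observed cases, the value counts how many indexed literature references report it.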
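Wherever Hepatotoxicity (steatosis) is given: steatosis confirmed by histopathology, value is the count of indexed references.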

SMILES | Hepatotoxicity (moderate) [1] | Hepatotoxicity (chronic liver disease) [2] | Hepatotoxicity (choleostasis) [3] | Hepatotoxicity (benign tumour) [4] | Hepatotoxicity (granulomatous hepatitis) [5] | Hepatotoxicity (moderate) [6] | Hepatotoxicity (steatosis) [7] | Hepatotoxicity (association with vascular disease) [8] | Hepatotoxicity (malignant tumour) [9] | Hepatotoxicity (severe hepatitis) [10] | Hepatotoxicity (cytolytic) [11] | Hepatotoxicity (acute) [12] | Hepatotoxicity (cirrhosis) [13] | Hepatotoxicity (acute) [14]
CO[C@@H]1[C@H](OC(=O)/C=C/C=C/C=C/C=C/C(=O)O)CC[C@]2(CO2)[C@H]1[C@@]1(C)O[C@@H]1CC=C(C)C [FUMAGILLIN] | 16.7% | 0 | 0 | 0 | 0 | 2 | 0 | 0 | 0 | 0 | 1 | 3.4% | 0 | 1
COc1ccc(CCN(C)CCCC(C#N)(c2cc(OC)c(OC)c(OC)c2)C(C)C)cc1OC (centres undefined) [GALLOPAMIL] | 4% | 0 | 0 | 0 | 0 | 1 | 0 | 0 | 0 | 0 | 0 | 0% | 0 | 0
CC(C)=CCC/C(C)=C/CC/C(C)=C/CCC(=O)OC/C=C(\C)CCC=C(C)C [GEFARNATE] | 1% | 0 | 0 | 0 | 0 | 1 | 0 | 0 | 0 | 0 | 0 | 0% | 0 | 0
C[C@H]([C@](O)(Cn1cncn1)c1ccc(F)cc1F)S(C)(=O)=O [GENACONAZOLE] | 33.3% | 0 | 0 | 0 | 0 | 1 | 0 | 0 | 0 | 0 | 0 | 0% | 0 | 0
CC1(C)CC(=O)N(CCCCN2CCN(c3ncccn3)CC2)C(=O)C1 [GEPIRONE] | 3.3% | 0 | 0 | 0 | 0 | 1 | 0 | 0 | 0 | 0 | 0 | 0% | 0 | 0
C#C[C@]1(O)CC[C@H]2[C@@H]3CCC4=CC(=O)CCC4=C3C=C[C@@]21CC [GESTRINONE] | 0.8% | 0 | 0 | 0 | 0 | 1 | 0 | 0 | 0 | 0 | 0 | 0% | 0 | 0
